According to ChEMBL document CHEMBL1201862, “PubChem BioAssay data set” (2004):
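1) Cells in 96-well plates. 2) Compound, 48 h, 5 concentrations. 3) Linear interpolation between surrounding doses. 4) Unreached endpoint = highest concentration. At the GI50, growth is halved.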 Active and inactive are the calls of the source. Cut-off read from the data, not from the text of the source: active = GI50 up to about 1.1 µM and inactive = higher.

Assays:
Assay in all cases: NCI tumour cell line growth inhibition, 48 h
[1] = test system: M19-MEL
[2] = test system: OVCAR-5
[3] = test system: K562
[4] = test system: SNB-75
[5] = test system: SF-268
[6] = test system: CCRF-CEM
[7] = test system: COLO 205
[8] = test system: 786-0
[9] = test system: SK-MEL-5
[10] = test system: IGROV-1
[11] = test system: DMS-273
[12] = test system: SK-MEL-28
[13] = test system: HCT-116
[14] = test system: HOP-92
[15] = test system: SNB-78
[16] = test system: NCI-H226
[17] = test system: SN12C
[18] = test system: ACHN

Measured: GI50

COC(=O)N/N=C(\C)CC(=O)Nc1cccc([N+](=O)[O-])c1
inactive: [1] > 100 µM | [2] > 100 µM | [3] > 100 µM | [4] > 100 µM | [5] > 100 µM | [6] > 100 µM | [7] > 100 µM | [8] > 100 µM | [9] > 100 µM | [10] > 100 µM | [11] > 100 µM | [12] > 100 µM | [13] > 100 µM | [14] > 100 µM | [15] > 100 µM | [16] > 100 µM

CCOC(=O)C(=O)Nc1c(C(C)C)cccc1C(C)C
inactive: [17] > 100 µM | [1] > 100 µM | [4] > 100 µM | [5] > 100 µM | [6] > 100 µM | [18] > 100 µM | [7] > 100 µM | [8] > 100 µM | [9] > 100 µM | [10] > 100 µM | [11] > 100 µM | [12] > 100 µM | [13] > 100 µM | [14] > 100 µM | [15] > 100 µM | [16] > 100 µM

O=[N+]([O-])c1cc(I)cc(/C=N/NS(=O)(=O)c2ccc(F)cc2)c1O
inactive: [17] 22.9 µM | [1] 31.2 µM | [2] 39 µM | [3] 21.6 µM | [4] 25 µM | [5] 28.9 µM | [6] 22 µM | [18] 30.7 µM | [7] 18.3 µM | [8] 28.4 µM | [9] 22.5 µM | [10] 33.7 µM | [11] 21.5 µM | [12] 29.4 µM | [13] 22.9 µM | [14] 18.3 µM | [15] 23.3 µM

CC(=O)CCn1ncc(Cl)c(Cl)c1=O
inactive: [17] 14.3 µM | [1] 4.92 µM | [2] 19.1 µM | [3] 3.51 µM | [4] 34.4 µM | [5] 12.1 µM | [6] 21.9 µM | [18] 17 µM | [8] 20.5 µM | [9] 19.2 µM | [10] 18.7 µM | [11] 17.7 µM | [12] 13.8 µM | [13] 14.5 µM | [14] 17 µM | [15] 19.8 µM | [16] 16.7 µM

CC1OC(OC2C(OC(=O)[C@]34CCC(C)(C)CC3C3=CCC5[C@@]6(C)C[C@H](O)[C@H](OC7OC(COC8OC(CO)C(O)C(O)C8O)C(O)C(O)C7O)[C@@](C)(C(=O)O)C6CC[C@@]5(C)C3(C)CC4)OCC(O)C2O)C(O)C(O)C1OC1OCC(O)C(O)C1O (stereo not given in full)
inactive: [17] > 100 µM | [1] > 100 µM | [2] > 100 µM | [3] > 100 µM | [4] > 100 µM | [5] > 100 µM | [6] > 100 µM | [18] > 100 µM | [7] > 100 µM | [8] > 100 µM | [9] > 100 µM | [10] > 100 µM | [11] > 100 µM | [12] > 100 µM | [14] > 100 µM | [15] > 100 µM | [16] > 100 µM

COC1C2C=CC(C2)[C@H]1[N+](=O)[O-] (stereo not given in full)
inactive: [17] > 100 µM | [1] > 100 µM | [2] > 100 µM | [3] > 100 µM | [4] > 100 µM | [5] > 100 µM | [6] 74.1 µM | [18] > 100 µM | [7] > 100 µM | [8] > 100 µM | [9] > 100 µM | [10] > 100 µM | [11] > 100 µM | [13] > 100 µM | [14] > 100 µM | [15] > 100 µM | [16] > 100 µM
